Read-outs that look alike come from different tables or passages of the source.
Experiments:
Type in all cases: cell-based, human
ACHN (renal) = assay: NCI anticancer screen, SRB assay, 48 h; conditions: Homo sapiens
Procedure, shortened: (§1)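 Compounds were tested across fifty three human cancer cell lines from nine tumour types. Each line got a dose-response curve of at least five concentrations at 10-fold dilutions, with continuous drug exposure and sulforhodamine B protein staining to estimate viability or growth.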

COLO 205 (colon) = assay: NCI anticancer screen, SRB assay, 48 h; conditions: Homo sapiens, COLO 205
Procedure, shortened: as §1

HCC-2998 (colon) = assay: NCI anticancer screen, SRB assay, 48 h; conditions: Homo sapiens
Procedure, shortened: as §1

[1] = system: HOP-62 (non-small cell lung); assay: NCI anticancer screen, SRB assay, 48 h; conditions: Homo sapiens
Procedure, shortened: as §1

M14 (melanoma) = assay: NCI anticancer screen, SRB assay, 48 h; conditions: Homo sapiens
Procedure, shortened: as §1

[2] = system: NCI-H460 (non-small cell lung); assay: NCI anticancer screen, SRB assay, 48 h; conditions: Homo sapiens
Procedure, shortened: as §1

NCI/ADR-RES (ovarian) = assay: NCI anticancer screen, SRB assay, 48 h; conditions: Homo sapiens, NCI/ADR-RES
Procedure, shortened: as §1

OVCAR-5 (ovarian) = assay: NCI anticancer screen, SRB assay, 48 h; conditions: Homo sapiens
Procedure, shortened: as §1

RXF 393 (renal) = assay: NCI anticancer screen, SRB assay, 48 h; conditions: Homo sapiens
Procedure, shortened: as §1

SF-539 (CNS) = assay: NCI anticancer screen, SRB assay, 48 h; conditions: Homo sapiens
Procedure, shortened: as §1

SK-MEL-2 (melanoma) = assay: NCI anticancer screen, SRB assay, 48 h; conditions: Homo sapiens
Procedure, shortened: as §1

SK-MEL-28 (melanoma) = assay: NCI anticancer screen, SRB assay, 48 h; conditions: Homo sapiens
Procedure, shortened: as §1

SN12C (renal) = assay: NCI anticancer screen, SRB assay, 48 h; conditions: Homo sapiens, SN12C
Procedure, shortened: as §1

SNB-19 (CNS) = assay: NCI anticancer screen, SRB assay, 48 h; conditions: Homo sapiens
Procedure, shortened: as §1

U251 (CNS) = assay: NCI anticancer screen, SRB assay, 48 h; conditions: Homo sapiens
Procedure, shortened: as §1

UO-31 (renal) = assay: NCI anticancer screen, SRB assay, 48 h; conditions: Homo sapiens
Procedure, shortened: as §1

Breast cancer cell lines = assay: NCI anticancer screen, SRB assay, panel summary; conditions: Homo sapiens
Description: (§2) Some of biological activity studies were carried out at the National Cancer Institute (NCI), Maryland, USA.
(§3) The compounds were evaluated for anticancer activity against fifty three human cancer cells derived from nine cancer types (leukemia cell line, non-small-cell lung cell line, colon cell line, CNS cell line, melanoma cell line, ovarian cell line, prostate cell line, and breast cancer cell line) as shown in Table 1. For each compound, dose response curves for each cell line were measured at a minimum of five concentrations at 10 fold dilutions. A protocol of 48 h continuous drug exposure was used and a sulforhodamine B (SRB) protein assay was used to estimate cell viability or growth.

CNS cancer cell lines = assay: NCI anticancer screen, SRB assay, panel summary; conditions: for GI50: Homo sapiens
Description: as §2, §3

Colon cancer cell lines = assay: NCI anticancer screen, SRB assay, panel summary; conditions: for GI50: Homo sapiens
Description: as §2, §3

[3] = system: Leukemia cancer cell lines; assay: NCI anticancer screen, SRB assay, panel summary; conditions: Homo sapiens
Description: as §2, §3

[4] = system: Melanoma cancer cell lines; assay: NCI anticancer screen, SRB assay, panel summary; conditions: for GI50: Homo sapiens
Description: as §2, §3

[5] = system: Non-small cell lung cancer cell lines; assay: NCI anticancer screen, SRB assay, panel summary; conditions: Homo sapiens
Description: as §2, §3

[6] = system: Ovarian cancer cell lines; assay: NCI anticancer screen, SRB assay, panel summary; conditions: Homo sapiens
Description: as §2, §3

[7] = system: Prostate cancer cell lines; assay: NCI anticancer screen, SRB assay, panel summary
Description: as §2, §3

Renal cancer cell lines = assay: NCI anticancer screen, SRB assay, panel summary; conditions: Homo sapiens
Description: as §2, §3

[8] = 48 h exposure, SRB, read-out: GI50
[9] = read-out: pGI50 (-log of molar concentration causing 50% inhibition of net cell growth) (converted)

Compound: COc1cc(/C=C/C(=O)c2cccc(-n3cc(-c4cc(OC)c(OC)c(OC)c4)[nH]c3=O)c2)cc(OC)c1OC [5d, 4-(3,4,5-trimethoxyphenyl)-1-3-[(E)-3-(3,4,5-trimethoxyphenyl)-2-propenoyl]phenyl-2,3-dihydro-1H-2-imidazolone]
- GI50 (ACHN (renal); [8]): 1740 nM
- GI50 (ACHN (renal); [9]): 1740 nM
- GI50 (COLO 205 (colon); COLO205, read-out: pGI50 (-log of molar concentration causing 50% inhibition of net cell growth) (converted)): 1510 nM
- GI50 (COLO 205 (colon); [8]): 1520 nM
- GI50 (HCC-2998 (colon); [8]): 1920 nM
- GI50 (HCC-2998 (colon); [9]): 1910 nM
- GI50 [1, 8]: 3080 nM
- GI50 [1, 9]: 3090 nM
- GI50 (M14 (melanoma); [8]): 2120 nM
- GI50 (M14 (melanoma); [9]): 2140 nM
- GI50 [2, 8]: 1730 nM
- GI50 [2, 9]: 1740 nM
- GI50 (NCI/ADR-RES (ovarian); NCl/ADR-RES, 48 h exposure, SRB, read-out: GI50): 2100 nM
- GI50 (NCI/ADR-RES (ovarian); [9]): 2090 nM
- GI50 (OVCAR-5 (ovarian); [8]): 4380 nM
- GI50 (OVCAR-5 (ovarian); [9]): 4370 nM
- GI50 (RXF 393 (renal); RXF 393, 48 h exposure, SRB, read-out: GI50): 1620 nM
- GI50 (RXF 393 (renal); RXF-393, read-out: pGI50 (-log of molar concentration causing 50% inhibition of net cell growth) (converted)): 1620 nM
- GI50 (SF-539 (CNS); [8]): 3120 nM
- GI50 (SF-539 (CNS); [9]): 3090 nM
- GI50 (SK-MEL-2 (melanoma); [8]): 3020 nM
- GI50 (SK-MEL-2 (melanoma); [9]): 3020 nM
- GI50 (SK-MEL-28 (melanoma); [8]): 1610 nM
- GI50 (SK-MEL-28 (melanoma); [9]): 1620 nM
- GI50 (SN12C (renal); SN 12C, read-out: pGI50 (-log of molar concentration causing 50% inhibition of net cell growth) (converted)): 2750 nM
- GI50 (SN12C (renal); [8]): 2750 nM
- GI50 (SNB-19 (CNS); [8]): 4070 nM
- GI50 (SNB-19 (CNS); [9]): 4070 nM
- GI50 (U251 (CNS); U-251, 48 h exposure, SRB, read-out: GI50): 1230 nM
- GI50 (U251 (CNS); U-251, read-out: pGI50 (-log of molar concentration causing 50% inhibition of net cell growth) (converted)): 1230 nM
- GI50 (UO-31 (renal); [8]): 960 nM
- GI50 (UO-31 (renal); [9]): 955 nM
- GI50 (Breast cancer cell lines; Breast panel, log of concentration in mol/L causing 50% inhibition of net cell growth, read-out: mean graph midpoint (MG_MID) of Log10 GI50 (converted)): 3980 nM
- LC50 (Breast cancer cell lines; Breast panel, log of concentration leading to 50% net cell death, read-out: mean graph midpoint (MG_MID) of Log10 LC50 (converted)): 45700 nM
- GI50 (Breast cancer cell lines; five breast cancer cell lines, exposure at least 48 hrs, read-out: GI50, range over the panel): 470 to 4190 nM
- mean graph midpoint (MG_MID) of Log10 LC50 (CNS cancer cell lines; CNS panel, log of concentration leading to 50% net cell death): 4.29
- GI50 (CNS cancer cell lines; CNS panel, log of concentration in mol/L causing 50% inhibition of net cell growth, read-out: mean graph midpoint (MG_MID) of Log10 GI50 (converted)): 3090 nM
- GI50 (CNS cancer cell lines; six CNS cancer cell lines, exposure at least 48 hrs, read-out: GI50, range over the panel): 1230 to 4960 nM
- mean graph midpoint (MG_MID) of Log10 LC50 (Colon cancer cell lines; Colon panel, log of concentration leading to 50% net cell death): 4.19
- GI50 (Colon cancer cell lines; Colon panel, log of concentration in mol/L causing 50% inhibition of net cell growth, read-out: mean graph midpoint (MG_MID) of Log10 GI50 (converted)): 1910 nM
- GI50 (Colon cancer cell lines; seven colon cancer cell lines, exposure at least 48 hrs, read-out: GI50, range over the panel): 740 to 1920 nM
- GI50 ([3]; Leukemia panel, log of concentration in mol/L causing 50% inhibition of net cell growth, read-out: mean graph midpoint (MG_MID) of Log10 GI50 (converted)): 380 nM
- LC50 ([3]; Leukemia panel, log of concentration leading to 50% net cell death, read-out: mean graph midpoint (MG_MID) of Log10 LC50 (converted)): ≥ 100000 nM
- GI50 ([3]; two leukemia cancer cell lines (RPMI-8226 and K-562), exposure at least 48 hrs, read-out: GI50, range over the panel): 230 to 590 nM
- GI50 ([4]; Melanoma panel, log of concentration in mol/L causing 50% inhibition of net cell growth, read-out: mean graph midpoint (MG_MID) of Log10 GI50 (converted)): 2040 nM
- GI50 ([4]; nine melanoma cancer cell lines, exposure at least 48 hrs, read-out: GI50, range over the panel): 1230 to 3020 nM
- mean graph midpoint (MG_MID) of Log10 LC50 ([4]; Melanoma panel, log of concentration leading to 50% net cell death): 4.67
- GI50 ([5]; Non-small cell lung panel, log of concentration in mol/L causing 50% inhibition of net cell growth, read-out: mean graph midpoint (MG_MID) of Log10 GI50 (converted)): 13800 nM
- GI50 ([5]; nine non-small cell lung cancer cell lines, exposure at least 48 hrs, read-out: GI50, range over the panel): 1050 to 14400 nM
- GI50 ([6]; Ovarian panel, log of concentration in mol/L causing 50% inhibition of net cell growth, read-out: mean graph midpoint (MG_MID) of Log10 GI50 (converted)): 2950 nM
- LC50 ([6]; Ovarian panel, log of concentration leading to 50% net cell death, read-out: mean graph midpoint (MG_MID) of Log10 LC50 (converted)): 75900 nM
- GI50 ([6]; six ovarian cancer cell lines, exposure at least 48 hrs, read-out: GI50, range over the panel): 1480 to 5120 nM
- GI50 ([7]; Homo sapiens, log of concentration in mol/L causing 50% inhibition of net cell growth, read-out: mean graph midpoint (MG_MID) of Log10 GI50 (converted)): 2630 nM
- LC50 ([7]; Homo sapiens, log of concentration leading to 50% net cell death, read-out: mean graph midpoint (MG_MID) of Log10 LC50 (converted)): ≥ 100000 nM
- mean graph midpoint (MG_MID) of Log10 TGI ([7]; log of concentration resulting in total inhibition of net cell growth): 4.73
- GI50 (Renal cancer cell lines; Renal panel, log of concentration in mol/L causing 50% inhibition of net cell growth, read-out: mean graph midpoint (MG_MID) of Log10 GI50 (converted)): 2630 nM
- LC50 (Renal cancer cell lines; Renal panel, log of concentration leading to 50% net cell death, read-out: mean graph midpoint (MG_MID) of Log10 LC50 (converted)): 27500 nM
- GI50 (Renal cancer cell lines; eight renal cancer cell lines, exposure at least 48 hrs, read-out: GI50, range over the panel): 960 to 20300 nM

From US8889874B2, “Imidazolone-chalcone derivatives as potential anticancer agent and process for the preparation thereof” (Council of Scientific and Industrial Research, priority 2010, dated 2014)
